Assay results reported in PubChem BioAssay AID330 (DTP/NCI, 2004).
Values joined by “and” are separate entries in the source; they are usually repeats but may differ in a detail not shown here. Identical values can stand only once. Inconclusive results and toxic doses are left out. The calls were made as follows: active = survival T/C of 150% or more; inactive = T/C below 125% in these data.

System: P388 leukemia ip, CD2F1 mice, survival T/C
Experiment: NCI In Vivo Anticancer Drug Screen. Data for tumor model P388 Leukemia (intraperitoneal) in CD2F1 (CDF1) mice
Settings: endpoint: median survival time, higher = longer survival
Procedure, shortened: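 Mice carrying the transplanted tumor received test compound or vehicle. Survival was recorded in each group, and the value is the treated-group measurement divided by that of the vehicle-treated control group.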

[1] = dose: 50.0 mg/kg/injection, schedule: Q01DX009 (ip), vehicle: saline with Tween-80
[2] = dose: 100.0 mg/kg/injection, schedule: Q01DX009 (ip), vehicle: saline with Tween-80
[3] = dose: 50.0 mg/kg/injection, schedule: Q01DX009 (ip), vehicle: saline
[4] = dose: 25.0 mg/kg/injection, schedule: Q04DX002 (ip), vehicle: saline with Tween-80
[5] = dose: 50.0 mg/kg/injection, schedule: Q04DX002 (ip), vehicle: saline with Tween-80
[6] = dose: 100.0 mg/kg/injection, schedule: Q04DX002 (ip), vehicle: saline with Tween-80
[7] = dose: 100.0 mg/kg/injection, schedule: Q01DX009 (ip), vehicle: Klucel (hydroxypropylcellulose) (HPC)
[8] = dose: 200.0 mg/kg/injection, schedule: Q01DX009 (ip), vehicle: Klucel (hydroxypropylcellulose) (HPC)
[9] = dose: 50.0 mg/kg/injection, schedule: Q01DX005 (ip), vehicle: saline with Tween-80
[10] = dose: 100.0 mg/kg/injection, schedule: Q01DX005 (ip), vehicle: saline with Tween-80
[11] = dose: 60.0 mg/kg/injection, schedule: Q01DX005 (ip), vehicle: Klucel (hydroxypropylcellulose) (HPC)
[12] = dose: 120.0 mg/kg/injection, schedule: Q01DX005 (ip), vehicle: Klucel (hydroxypropylcellulose) (HPC)
[13] = dose: 240.0 mg/kg/injection, schedule: Q01DX005 (ip), vehicle: Klucel (hydroxypropylcellulose) (HPC)
[14] = dose: 6.25 mg/kg/injection, schedule: Q01DX005 (ip), vehicle: Klucel (hydroxypropylcellulose) (HPC)
[15] = dose: 12.5 mg/kg/injection, schedule: Q01DX005 (ip), vehicle: Klucel (hydroxypropylcellulose) (HPC)
[16] = dose: 50.0 mg/kg/injection, schedule: Q01DX005 (ip), vehicle: Klucel (hydroxypropylcellulose) (HPC)

Measured: T/C

CCn1c2ccccc2nc2cc3c(cc21)c(Cl)c(=O)c1ccccc13
inactive: [1] 108 % of control | [2] 104 % of control | dose: 200.0 mg/kg/injection, schedule: Q01DX009 (ip), vehicle: saline with Tween-80 98 % of control

CCOC(=O)C1=C(C)N(Cc2ccccc2)C2(O)C1=CC(=O)C(Cl)=C2Cl (stereo not given)
inactive: [3] 99 % of control | dose: 100.0 mg/kg/injection, schedule: Q01DX009 (ip), vehicle: saline 105 % of control | dose: 200.0 mg/kg/injection, schedule: Q01DX009 (ip), vehicle: saline 108 % of control

CN=C(N)N/N=C(/C)c1ccc2c(c1)Cc1cc(I)ccc1-2
inactive: [4] 106 % of control | [5] 100 % of control | [6] 107 % of control

Cc1cc(NCCCN(C)C)c2ccc3cc(NCCCN(C)C)c(C)nc3c2n1
inactive: dose: 25.0 mg/kg/injection, schedule: Q01DX009 (ip), vehicle: saline with Tween-80 96 % of control | [1] 104 % of control | [2] 102 % of control

C1CN1c1nnc(N2CC2)nn1
active: dose: 7.5 mg/kg/injection, schedule: Q01DX005 (ip), vehicle: saline 178 % of control | dose: 30.0 mg/kg/injection, schedule: Q01DX005 (ip), vehicle: saline 260 % of control

O=c1[nH]c2cc(Cl)ccc2c(=O)o1
inactive: dose: 50.0 mg/kg/injection, schedule: Q01DX009 (ip), vehicle: Klucel (hydroxypropylcellulose) (HPC) 112 % of control | [7] 100 % of control | [8] 103 % of control

CCC(C)C(=O)OC1CCC=C2C=CC(C)C(CCC3CC(O)CC(=O)O3)C21 (stereo not given)
inactive: dose: 15.0 mg/kg/injection, schedule: Q01DX009 (ip), vehicle: saline 107 % of control | dose: 30.0 mg/kg/injection, schedule: Q01DX009 (ip), vehicle: saline 100 % of control | dose: 60.0 mg/kg/injection, schedule: Q01DX009 (ip), vehicle: saline 100 % of control

C/C(Cl)=C/CN(C/C=C(/C)Cl)CCO
inactive: [9] 101 % of control | [10] 102 % of control

CSC(=S)n1nc(-c2ccccc2)c(N=Nc2cccc(F)c2)c1-c1ccccc1
inactive: [6] 100 % of control | dose: 200.0 mg/kg/injection, schedule: Q04DX002 (ip), vehicle: saline with Tween-80 97 % of control | dose: 400.0 mg/kg/injection, schedule: Q04DX002 (ip), vehicle: saline with Tween-80 87 % of control

CC1=C(C)C2(C)S(=O)Nc3ccccc3C12C (stereo not given)
inactive: [11] 99 % of control | [12] 99 % of control | [13] 87 % of control

NC(=O)NC(=O)/C=C/C(=O)OCCCl
inactive: [14] 102 % of control | [15] 89 % of control | dose: 25.0 mg/kg/injection, schedule: Q01DX005 (ip), vehicle: Klucel (hydroxypropylcellulose) (HPC) 94 % of control | [16] 101 % of control

COc1ccccc1N1CCN(C(=O)CCCl)CC1
inactive: [11] 109 % of control | [12] 103 % of control | [13] 105 % of control

N#CC1C(=O)NC(=O)C(C#N)C12CCCCC2 (stereo not given)
inactive: dose: 50.0 mg/kg/injection, schedule: Q04DX003 (ip), vehicle: saline with Tween-80 105 % of control | dose: 100.0 mg/kg/injection, schedule: Q04DX003 (ip), vehicle: saline with Tween-80 100 % of control | dose: 200.0 mg/kg/injection, schedule: Q04DX003 (ip), vehicle: saline with Tween-80 105 % of control

O=C(O)c1ccc(-c2c3ccc(=O)cc-3oc3cc(O)ccc23)cc1
inactive: [11] 100 % of control | [12] 97 % of control | [13] 100 % of control

Cc1cc2nc3cc(C)c(N)cc3[n+](-c3ccccc3)c2cc1N
inactive: [14] 109 % of control | [15] 116 % of control

O=C(Nc1ccc(Br)cc1)c1ccc(Cl)c(Cl)c1
inactive: [7] 116 % of control | [8] 119 % of control | dose: 400.0 mg/kg/injection, schedule: Q01DX009 (ip), vehicle: Klucel (hydroxypropylcellulose) (HPC) 117 % of control

Cc1ccc(CN2CC(=O)N3Cc4ccccc4CN3C(=O)C2)cc1
inactive: [9] 103 % of control | [10] 116 % of control | dose: 200.0 mg/kg/injection, schedule: Q01DX005 (ip), vehicle: saline with Tween-80 98 % of control

COc1ccc(NCC(=O)O)c([N+](=O)[O-])c1
inactive: dose: 100.0 mg/kg/injection, schedule: Q01DX001 (ip), vehicle: saline with Tween-80 100 % of control | dose: 200.0 mg/kg/injection, schedule: Q01DX001 (ip), vehicle: saline with Tween-80 109 % of control | dose: 400.0 mg/kg/injection, schedule: Q01DX001 (ip), vehicle: saline with Tween-80 109 % of control

CC(=O)c1ccc2c(c1)N(CCCN1CCN(CCO)CC1)c1ccccc1S2
inactive: dose: 1.56 mg/kg/injection, schedule: Q01DX009 (ip), vehicle: saline 116 % of control | dose: 3.12 mg/kg/injection, schedule: Q01DX009 (ip), vehicle: saline 103 % of control | dose: 6.25 mg/kg/injection, schedule: Q01DX009 (ip), vehicle: saline 107 % of control | dose: 6.25 mg/kg/injection, schedule: Q04DX003 (ip), vehicle: saline 91 % of control | dose: 12.5 mg/kg/injection, schedule: Q01DX009 (ip), vehicle: saline 108 % of control | dose: 12.5 mg/kg/injection, schedule: Q04DX003 (ip), vehicle: saline 103 % of control | dose: 25.0 mg/kg/injection, schedule: Q01DX009 (ip), vehicle: saline 106 % of control | dose: 25.0 mg/kg/injection, schedule: Q04DX003 (ip), vehicle: saline 107 % of control | [3] 109 % of control | dose: 50.0 mg/kg/injection, schedule: Q04DX003 (ip), vehicle: saline 119 % of control

CN1C(=O)CCCCCCCCCCSc2ccccc21
inactive: [16] 93 % of control | dose: 100.0 mg/kg/injection, schedule: Q01DX005 (ip), vehicle: Klucel (hydroxypropylcellulose) (HPC) 97 % of control | dose: 200.0 mg/kg/injection, schedule: Q01DX005 (ip), vehicle: Klucel (hydroxypropylcellulose) (HPC) 88 % of control

CCOC(=O)CCCCCCCNC(=O)N1c2c(nc(N)[nH]c2=O)NCC1CNc1ccc(C(=O)NC(CCC(=O)O)C(=O)O)cc1 (stereo not given)
inactive: dose: 50.0 mg/kg/injection, schedule: Q01DX001 (ip), vehicle: sodium bicarbonate 100 % of control | dose: 100.0 mg/kg/injection, schedule: Q01DX001 (ip), vehicle: sodium bicarbonate 101 % of control | dose: 200.0 mg/kg/injection, schedule: Q01DX001 (ip), vehicle: sodium bicarbonate 100 % of control

Clc1ccccc1Nc1c2ccccc2nc2ccccc12
inactive: dose: 100.0 mg/kg/injection, schedule: Q04DX003 (ip), vehicle: saline 100 % of control | dose: 132.0 mg/kg/injection, schedule: Q04DX003 (ip), vehicle: suspension in saline 108 % of control | dose: 200.0 mg/kg/injection, schedule: Q04DX003 (ip), vehicle: suspension in saline 110 % of control | dose: 300.0 mg/kg/injection, schedule: Q04DX003 (ip), vehicle: suspension in saline 115 % of control | dose: 400.0 mg/kg/injection, schedule: Q04DX003 (ip), vehicle: saline 104 % of control

O=c1c2ccccc2nnn1Cc1ccco1
inactive: dose: 1.25 mg/kg/injection, schedule: Q01DX005 (ip), vehicle: saline with Tween-80 100 % of control | dose: 12.5 mg/kg/injection, schedule: Q01DX005 (ip), vehicle: saline with Tween-80 92 % of control | dose: 25.0 mg/kg/injection, schedule: Q01DX005 (ip), vehicle: saline with Tween-80 100 % of control and 90 % of control | [9] 104 % of control and 90 % of control | [10] 92 % of control and 93 % of control

CSC(=S)/N=c1\c(C)cccn1C
inactive: [4] 98 % of control | [5] 100 % of control | [6] 102 % of control

Cc1cc(C)n2[nH]c(=O)cc2n1
inactive: dose: 25.0 mg/kg/injection, schedule: Q01DX009 (ip), vehicle: suspension in saline 99 % of control | dose: 50.0 mg/kg/injection, schedule: Q01DX009 (ip), vehicle: suspension in saline 97 % of control | dose: 100.0 mg/kg/injection, schedule: Q01DX009 (ip), vehicle: suspension in saline 97 % of control | dose: 200.0 mg/kg/injection, schedule: Q01DX009 (ip), vehicle: suspension in saline 98 % of control
